Data from patent publication US9829481B2, “Senescence tracers” (Eberhard Karls Universitaet Tuebingen Medizinische Fakultaet, priority 2012, dated 2017).

Legend:
Assay type in all cases: cell-based
[1] = test system: MCF7 cells (breast cancer cell line); assay: FACS analysis of labelling of senescent (Doxorubicin-treated) cells; settings: with vs without 250 nM Doxorubicin, labeled with 40 ng/ml compound, 20 min, 37° C., 5% CO2
Procedure: (§1) FIG. 1: FACS-analysis data of the compound of Example 5 in HCT116 cells (colorectal carcinoma cell line) and MCF7 cells (breast cancer cell line) with and with out 250 nM Doxorubicin treatment.
(§2) MCF7 cells with (senescence +) and without 250 nM Doxorubicin treatment. The cells were incubated 20 min in 37° C. with 5% CO2.
(§3) To show the capability of the compounds of the invention to mark and visualise senescent cells, HCT116 cells (colorectal carcinoma cell line) and MCF7 cells (breast cancer cell line) were incubated 20 min at 37° C. with 5% CO2 in the presence and absence of Doxorubicin. The cells were then labeled with 40 ng/ml of the compound of Example 5.
(§4) To show the capability of the compounds of the invention to mark and visualise senescent cells, HCT116 cells (colorectal carcinoma cell line) and MCF7 cells (breast cancer cell line) were incubated 20 min in 37° C. with 5% CO2. The cells were then labeled with 40 ng/ml of the compound of Example 2.

[2] = test system: HCT116 cells (colorectal carcinoma cell line); assay: as above; settings: with vs without 250 nM Doxorubicin, labeled with 40 ng/ml compound, 20 min, 37° C., 5% CO2
Procedure: as §1, §2, §3, §4

[3] = test system: MCF7 cells (breast cancer cell line); assay: Senescence β-galactosidase staining, light microscopy; settings: 250 nM Doxorubicin for 24 hours
Procedure: FIG. 2: Light microscope pictures of β-gal-stained HCT116 and MCF7 cells with and with out 250 nM Doxorubicin treatment.
To stimulate HCT116 (colorectal carcinoma cell line) cells and MCF7 (breast cancer cell line) cells for senescence β-galactosidase staining, the cells were treated with 250nM Doxorubicin for 24 hours. Doxorubicin interacts with DNA by intercalation and inhibits the progression of the enzyme topoisonerase II.

[4] = test system: MCF7 cells (breast cancer cell line); assay: Lysosome staining with LysoTracker; settings: presence vs absence of Doxorubicin
Source text: (§5) FIG. 3: Graph of staining signals obtained for HCT116 and MCF7 cells stained with LysoTracker® both in the presence and absence of Doxorubicin.

[5] = test system: HCT116 cells (colorectal carcinoma cell line); assay: Lysosome staining with LysoTracker; settings: presence vs absence of Doxorubicin
Source text: as §5

CCN(CC)c1ccc2nc3c4cc(OCCCS[C@H]5O[C@@H](C)[C@@H](O)[C@@H](O)[C@@H]5O)ccc4c(=O)cc-3oc2c1 [Example 5]
enrichment of the labeled compound in Doxorubicin-treated (senescent) cells (FACS) [1]: enhanced enrichment

CN(C)c1cccc2c(S(=O)(=O)NCCNc3ccnc4cc(Cl)ccc34)cccc12 [Example 2]
enrichment of the labeled compound in Doxorubicin-treated (senescent) cells (FACS) [1]: enhanced enrichment | enrichment of the labeled compound in Doxorubicin-treated (senescent) cells (FACS) [2]: enhanced enrichment

COc1cccc2c1C(=O)c1c(O)c3c(c(O)c1C2=O)C[C@@](O)(C(=O)CO)C[C@@H]3O[C@H]1C[C@H](N)[C@H](O)[C@H](C)O1 [Doxorubicin]
β-gal expression (senescence staining) [3]: strong expression of β-gal | lysosome staining signal compared to untreated cells [4]: enhanced positive lysosome staining | lysosome staining signal compared to untreated cells [5]: enhanced positive lysosome staining
